Results: ChEMBL document CHEMBL1268984, “N-Substituted acetamidines and 2-methylimidazole derivatives as selective inhibitors of neuronal nitric oxide synthase” (Bioorg Med Chem Lett, 2010)

Key:
[1] = Selectivity ratio, ratio of IC50 for bovine eNOS to IC50 for rat brain nNOS
Nitric oxide synthase 1 = Nitric oxide synthase 1 (Rattus norvegicus, UniProt P29476); test: Inhibition of rat brain nNOS assessed as nitric oxide mediated oxidation of oxyhemoglobin to methemoglobin
[2] = Selectivity ratio, ratio of IC50 for mouse macrophage iNOS to IC50 for rat brain nNOS
Nitric oxide synthase 3 = biological target: T1, Nitric oxide synthase 3 (Bos taurus, UniProt P29473); test: Inhibition of bovine eNOS assessed as nitric oxide mediated oxidation of oxyhemoglobin to methemoglobin
T1 sequence (P29473 whole entry): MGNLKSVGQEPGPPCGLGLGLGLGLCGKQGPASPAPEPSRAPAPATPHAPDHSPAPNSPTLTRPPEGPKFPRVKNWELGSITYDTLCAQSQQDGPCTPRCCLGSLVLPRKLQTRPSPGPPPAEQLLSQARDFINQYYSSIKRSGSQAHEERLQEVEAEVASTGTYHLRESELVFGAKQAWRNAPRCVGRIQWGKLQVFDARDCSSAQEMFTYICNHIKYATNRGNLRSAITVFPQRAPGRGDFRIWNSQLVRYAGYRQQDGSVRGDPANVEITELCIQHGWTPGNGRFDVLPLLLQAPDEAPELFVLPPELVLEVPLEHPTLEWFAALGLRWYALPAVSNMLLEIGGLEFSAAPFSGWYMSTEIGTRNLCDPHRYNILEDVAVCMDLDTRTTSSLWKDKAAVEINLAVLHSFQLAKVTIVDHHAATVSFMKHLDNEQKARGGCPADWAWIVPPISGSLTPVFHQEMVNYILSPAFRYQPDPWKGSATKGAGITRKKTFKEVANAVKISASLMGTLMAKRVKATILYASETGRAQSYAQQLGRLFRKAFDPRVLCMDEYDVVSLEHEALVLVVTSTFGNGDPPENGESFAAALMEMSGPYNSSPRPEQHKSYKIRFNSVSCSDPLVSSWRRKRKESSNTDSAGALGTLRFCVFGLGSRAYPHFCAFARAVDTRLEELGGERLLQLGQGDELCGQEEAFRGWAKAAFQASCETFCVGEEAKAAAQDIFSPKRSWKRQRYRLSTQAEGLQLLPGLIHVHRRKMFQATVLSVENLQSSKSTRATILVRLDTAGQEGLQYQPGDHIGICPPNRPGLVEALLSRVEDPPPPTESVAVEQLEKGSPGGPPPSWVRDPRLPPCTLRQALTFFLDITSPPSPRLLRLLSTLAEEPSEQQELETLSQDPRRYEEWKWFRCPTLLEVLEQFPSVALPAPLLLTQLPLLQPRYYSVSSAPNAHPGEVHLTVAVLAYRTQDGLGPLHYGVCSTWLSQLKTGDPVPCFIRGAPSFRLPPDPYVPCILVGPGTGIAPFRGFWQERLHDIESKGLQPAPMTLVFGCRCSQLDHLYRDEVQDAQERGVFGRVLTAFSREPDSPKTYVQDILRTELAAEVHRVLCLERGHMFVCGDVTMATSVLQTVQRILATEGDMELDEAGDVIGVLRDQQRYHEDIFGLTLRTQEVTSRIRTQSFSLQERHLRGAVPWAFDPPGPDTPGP

[3] = biological target: T2, Nitric oxide synthase, inducible (Mus musculus, UniProt P29477); test: Inhibition of mouse macrophage iNOS assessed as nitric oxide mediated oxidation of oxyhemoglobin to methemoglobin
T2 sequence (P29477 whole entry): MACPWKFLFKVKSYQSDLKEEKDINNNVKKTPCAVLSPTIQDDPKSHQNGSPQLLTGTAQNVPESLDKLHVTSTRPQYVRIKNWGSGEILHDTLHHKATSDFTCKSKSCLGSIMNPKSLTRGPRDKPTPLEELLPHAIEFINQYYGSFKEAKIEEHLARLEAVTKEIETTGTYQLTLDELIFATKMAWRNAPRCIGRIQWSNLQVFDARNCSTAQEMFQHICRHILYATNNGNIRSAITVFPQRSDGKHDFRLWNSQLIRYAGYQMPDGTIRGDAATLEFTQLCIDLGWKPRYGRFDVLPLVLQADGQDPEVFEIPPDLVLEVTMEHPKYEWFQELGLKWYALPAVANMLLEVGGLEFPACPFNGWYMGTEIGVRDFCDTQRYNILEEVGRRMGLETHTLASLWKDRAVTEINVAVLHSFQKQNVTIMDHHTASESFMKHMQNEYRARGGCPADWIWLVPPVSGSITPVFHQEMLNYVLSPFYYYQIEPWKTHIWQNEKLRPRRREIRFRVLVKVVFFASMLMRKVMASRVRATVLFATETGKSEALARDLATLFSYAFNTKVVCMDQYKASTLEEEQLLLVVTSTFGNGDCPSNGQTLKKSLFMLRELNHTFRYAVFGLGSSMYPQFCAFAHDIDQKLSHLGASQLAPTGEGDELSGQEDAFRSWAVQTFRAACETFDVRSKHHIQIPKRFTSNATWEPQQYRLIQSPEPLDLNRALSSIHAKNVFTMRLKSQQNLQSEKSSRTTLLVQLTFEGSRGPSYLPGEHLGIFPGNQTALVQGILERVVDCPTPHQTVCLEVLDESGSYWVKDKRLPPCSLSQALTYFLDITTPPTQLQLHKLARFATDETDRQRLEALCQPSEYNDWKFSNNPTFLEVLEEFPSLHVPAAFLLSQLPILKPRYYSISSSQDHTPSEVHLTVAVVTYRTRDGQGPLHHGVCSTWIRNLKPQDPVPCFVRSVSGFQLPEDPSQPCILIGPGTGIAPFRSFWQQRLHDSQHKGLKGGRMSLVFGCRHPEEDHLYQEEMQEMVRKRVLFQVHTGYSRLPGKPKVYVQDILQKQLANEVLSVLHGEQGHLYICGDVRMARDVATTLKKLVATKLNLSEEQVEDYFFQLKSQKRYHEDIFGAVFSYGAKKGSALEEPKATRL

Nitric oxide synthase 1, sequence (P29476 whole entry): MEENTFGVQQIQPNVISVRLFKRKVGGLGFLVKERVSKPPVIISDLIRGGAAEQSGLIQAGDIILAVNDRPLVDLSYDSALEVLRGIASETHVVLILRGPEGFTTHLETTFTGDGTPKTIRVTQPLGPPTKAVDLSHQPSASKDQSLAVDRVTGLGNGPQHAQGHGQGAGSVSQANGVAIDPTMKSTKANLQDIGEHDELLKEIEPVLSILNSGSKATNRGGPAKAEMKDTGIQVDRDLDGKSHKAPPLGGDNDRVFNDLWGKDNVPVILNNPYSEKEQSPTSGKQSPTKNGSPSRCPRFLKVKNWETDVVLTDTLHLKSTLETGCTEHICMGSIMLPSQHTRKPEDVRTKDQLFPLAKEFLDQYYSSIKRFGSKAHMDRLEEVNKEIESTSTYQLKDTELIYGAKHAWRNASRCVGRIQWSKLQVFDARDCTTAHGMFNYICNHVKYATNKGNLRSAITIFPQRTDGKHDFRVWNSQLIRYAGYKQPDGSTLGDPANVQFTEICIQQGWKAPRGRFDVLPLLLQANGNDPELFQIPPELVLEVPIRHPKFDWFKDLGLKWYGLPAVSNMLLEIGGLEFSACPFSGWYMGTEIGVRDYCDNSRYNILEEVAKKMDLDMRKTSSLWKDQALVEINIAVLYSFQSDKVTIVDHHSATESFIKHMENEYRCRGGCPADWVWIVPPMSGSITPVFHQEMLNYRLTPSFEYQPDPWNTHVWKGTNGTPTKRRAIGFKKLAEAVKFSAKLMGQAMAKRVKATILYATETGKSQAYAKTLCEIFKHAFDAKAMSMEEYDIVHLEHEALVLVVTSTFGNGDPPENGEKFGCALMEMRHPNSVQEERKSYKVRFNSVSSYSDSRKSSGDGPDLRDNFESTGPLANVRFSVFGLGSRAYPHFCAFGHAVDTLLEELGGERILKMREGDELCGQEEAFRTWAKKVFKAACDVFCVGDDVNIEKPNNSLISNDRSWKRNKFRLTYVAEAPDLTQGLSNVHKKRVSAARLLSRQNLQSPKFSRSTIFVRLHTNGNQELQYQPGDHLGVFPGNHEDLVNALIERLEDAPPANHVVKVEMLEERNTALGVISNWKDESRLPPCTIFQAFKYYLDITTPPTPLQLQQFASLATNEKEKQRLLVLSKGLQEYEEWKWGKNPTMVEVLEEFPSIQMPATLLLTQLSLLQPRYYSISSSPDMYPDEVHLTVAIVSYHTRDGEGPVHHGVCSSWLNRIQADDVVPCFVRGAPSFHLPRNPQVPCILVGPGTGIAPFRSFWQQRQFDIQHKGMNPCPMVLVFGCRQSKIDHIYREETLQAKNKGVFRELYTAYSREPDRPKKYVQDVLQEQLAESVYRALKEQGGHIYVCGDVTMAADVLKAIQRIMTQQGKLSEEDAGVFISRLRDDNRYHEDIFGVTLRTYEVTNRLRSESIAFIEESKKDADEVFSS

Row | Ratio IC50 [1] | IC50 (Nitric oxide synthase 1) | Ratio IC50 [2] | IC50 (Nitric oxide synthase 3) | IC50 [3] | SMILES
1 | 500 | 0.2 µM | 50 | 100 µM | 10 µM | CC(=N)NC(c1ccccc1)C(C)C (racemic)
2 | 16 | 5 µM | 20 | 80 µM | 100 µM | Cc1nccn1C(C)c1ccccc1 (racemic) [EFETOZOLE]
3 | 0.9 | 90 µM | 0.003 | 80 µM | 0.25 µM | CCC(NC(C)=N)c1ccccc1 (racemic)
4 | 18 | 5 µM | 10 | 90 µM | 50 µM | Cc1nccn1Cc1ccccc1
5 | 2 | 150 µM | 0.003 | 300 µM | 0.45 µM | CC(=N)N[C@@H](C)c1ccccc1
6 | 20 | 5 µM | 2.4 | 100 µM | 12 µM | Cc1nccn1Cc1ccncc1

Continued, molecule first:

Row | SMILES | Ratio IC50 [1] | IC50 (Nitric oxide synthase 1) | Ratio IC50 [2] | IC50 (Nitric oxide synthase 3) | IC50 [3]
7 | COc1cccc(CNC(C)=N)c1 | 10 | 10 µM | 5 | 100 µM | 50 µM
8 | CC(=N)NC(c1ccccc1)c1ccccc1 | 1170 | 0.3 µM | 100 | 350 µM | 30 µM
9 | CC(=N)NCc1ccccc1 | 2.3 | 150 µM | 0.013 | 350 µM | 0.2 µM
10 | CC(=N)NCc1ccc2c(c1)OCO2 | 1 | 400 µM | 2 | 400 µM | 800 µM
